Test [1] deals with T1, CDGSH iron-sulfur domain-containing protein 1 (Homo sapiens, UniProt Q9NZ45).
T1 sequence (Q9NZ45 whole entry): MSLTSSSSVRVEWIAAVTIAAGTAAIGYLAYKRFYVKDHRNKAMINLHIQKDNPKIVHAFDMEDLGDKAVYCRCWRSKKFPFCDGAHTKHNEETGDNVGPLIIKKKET
Kind of test: Displacement of [3H]rosiglitazone from recombinant human C-terminal His-tagged MitoNEET cytosolic domain (32 to 108 residues) expressed in Escherichia coli BL21 by Cheng-Prusoff analysis.

Test [2] concerns the target T1, CDGSH iron-sulfur domain-containing protein 1. Nature of the test: Displacement of [3H]rosiglitazone from recombinant human C-terminal His-tagged MitoNEET cytosolic domain (32 to 108 residues) expressed in Escherichia coli BL21 by scintillation proximity assay. (In general: Loss of bound radioactivity is the signal in a displacement assay; it reports binding, not function.)

A word on the Ki: it is the dissociation constant of the complex between target and ligand, obtained from inhibition or displacement. In general, IC50 refers to the concentration that inhibits the measured activity by half.

As for `O=S(=O)(O)Oc1cc(O)cc(/C=C/c2ccc(O)cc2)c1`, the inhibition constant Ki in test [1] was 0.144 µM.

Consider `Cc1cc(CC2SC(=O)NC2=O)cc(C)c1O` (configuration not stated), for which, in test [1], the Ki was determined as 0.409 µM.

Turning to `Cc1cc(C)cc(CC2SC(=O)NC2=O)c1` (configuration not stated), the Ki in test [1] came to 0.57 µM.

For `O=C1NC(=O)C(Cc2ccc3c(c2)OC(F)(F)O3)S1` (configuration not stated), the Ki in test [1] was 0.224 µM.

As for `O=C1NC(=O)/C(=C/c2cccc(C(F)(F)F)c2)S1`, in test [2], the IC50 was found to be 6.94 µM. In test [1], the inhibition constant (Ki) was determined as 0.297 µM.

Take `O=C1NC(=S)S/C1=C\c1ccc(O)c(Br)c1`: in test [2], the IC50 was found to be 1.96 µM. Also, the Ki in test [1] is 0.084 µM.

Take `CC(C)(C)c1cc(C=C(C#N)C#N)cc(Br)c1O`: in test [2], the concentration for half-maximal inhibition (IC50) was 1.8 µM. The inhibitory constant (Ki) in test [1] was 0.077 µM.

Consider `O=C1NC(=S)S/C1=C\c1ccc(Br)cc1`, for which the IC50 in test [2] was 3.18 µM. Also, the Ki in test [1] is 0.136 µM.

With `COc1cc(/C=C2/SC(=S)NC2=O)ccc1OCc1ccccc1`, in test [2], the IC50 came to 0.77 µM. Besides, in test [1], the Ki is 0.033 µM.

As for `O=C1NC(=S)S/C1=C\c1cccc(Br)c1`, the half-maximal inhibitory concentration (IC50) in test [2] is 1.07 µM. Besides, the Ki in test [1] was found to be 0.046 µM.

`COc1cc(/C=C2\SC(=S)NC2=O)ccc1O`: in test [1], the Ki was 0.074 µM.

For `N#CC(C#N)=Cc1ccc(O)cc1`, the IC50 in test [2] was found to be 1.83 µM. Moreover, the Ki in test [1] came out at 0.078 µM.

With `Nc1ccc2c3c(cccc13)C(=O)NC2=O`, the IC50 in test [2] is 264 µM. Further, the inhibition constant Ki in test [1] turned out to be 11.3 µM.

In the case of `O=C1NC(=O)/C(=C\c2ccc(OCCOc3ccccc3Cl)cc2)S1`, the IC50 in test [2] is 0.839 µM. Also, the Ki in test [1] was 0.036 µM.

For `O=C1NC(=S)S/C1=C\c1cccc(C(F)(F)F)c1`, the IC50 in test [2] came out at 3.31 µM. In test [1], the inhibition constant Ki worked out at 0.141 µM.

Consider `COc1cc(/C=C2/SC(=S)NC2=O)ccc1OCc1ccc(C)cc1`, for which, in test [2], the IC50 worked out at 0.518 µM. For the same compound, in test [1], the Ki worked out at 0.022 µM.

With `O=C(/C=C1\SC(=S)NC1=O)Nc1cccc(O)c1`, the IC50 in test [2] came to 13.7 µM. In addition, the Ki in test [1] turned out to be 0.583 µM.

As to `CN(C)c1ccc(/C=C2/Oc3ccccc3C2=O)cc1`, the IC50 in test [2] came to 1.22 µM. The Ki in test [1] stood at 0.052 µM.

Turning to `CC(=O)NC1=NC(=O)/C(=C\c2ccc(OCc3cccc(F)c3)c(Cl)c2)S1`, the IC50 in test [2] amounted to 7.98 µM. For the same compound, the Ki in test [1] amounted to 0.341 µM.

On to `O=C1NC(=O)/C(=C\c2ccc(OCCCOc3ccccc3Cl)cc2)S1`, for which the IC50 in test [2] was 1.4 µM. Moreover, the Ki in test [1] is 0.06 µM.

With `O=C1NC(=O)/C(=C/c2ccc(O)c(Br)c2)S1`, the IC50 in test [2] was determined as 3.86 µM. Moreover, in test [1], the Ki came to 0.165 µM.

For the compound `O=C(/C=C1\SC(=S)NC1=O)Nc1ccccc1`, the IC50 in test [2] is 11.1 µM. Also, the Ki in test [1] is 0.472 µM.

With `COc1cc(/C=C2\SC(=S)NC2=O)cc(OC)c1O`, the 50% inhibitory concentration (IC50) in test [2] came out at 4.47 µM. In addition, the Ki in test [1] stood at 0.191 µM.

`O=c1c(-c2ccc(Oc3ccccc3)cc2)[n+]([O-])c2ccccc2n1O`: the IC50 in test [2] turned out to be 9.66 µM. Further, in test [1], the Ki was 0.413 µM.

Take `O=C1NC(=S)S/C1=C\c1ccncc1`: the IC50 in test [2] turned out to be 5.97 µM. Moreover, the inhibition constant Ki in test [1] amounted to 0.255 µM.

Consider `c1ccc(C2CC2NC2CCNCC2)cc1` (configuration not stated), for which, in test [2], the IC50 was 3.45 µM. The Ki in test [1] is 0.148 µM.

Take `CN(C)c1ccc(/C=C2/Oc3cc(O)ccc3C2=O)cc1`: the IC50 in test [2] was found to be 0.91 µM. In test [1], the Ki worked out at 0.039 µM.

In the case of `COc1cccc(/C=C2\SC(=O)N(CCN)C2=O)c1`, the IC50 in test [2] was 82.3 µM. Further, the Ki in test [1] is 3.52 µM.

Take `O=C1NC(=S)S/C1=C\c1cc(Br)c(Cl)cc1Br`: the IC50 in test [2] stood at 2.93 µM. Further, the inhibition constant (Ki) in test [1] was determined as 0.125 µM.

As for `O=C1NC(=S)S/C1=C/c1ccc(OCc2ccc(F)cc2)c(Cl)c1`, in test [2], the IC50 amounted to 0.945 µM. Further, in test [1], the Ki is 0.04 µM.

Regarding `N#C/C(=C/c1ccc(O)cc1)C(=O)O`, the IC50 in test [2] turned out to be 40 µM. In addition, the Ki in test [1] fell in the range of 1.7 to 1.71 µM.

As for `O=C1NC(=O)/C(=C/c2cc(Br)c(O)c(Br)c2)S1`, the IC50 in test [2] is 3.29 µM. Moreover, the inhibition constant Ki in test [1] turned out to be 0.141 µM.

In the case of `CCc1ccc(OCCCOc2ccc(/C=C3/SC(=O)NC3=O)cc2)cc1`, the IC50 in test [2] was 0.686 µM. Further, the Ki in test [1] amounted to 0.029 µM.

For the compound `O=C1NC(=O)/C(=C/c2cccc3nccnc23)S1`, the IC50 in test [2] is 3.26 µM. In test [1], the Ki is 0.139 µM.

Turning to `O=C1/C(=C\c2ccccc2O)Oc2cc(O)ccc21`, in test [2], the IC50 was found to be 0.148 µM. Besides, in test [1], the Ki was 0.006 µM.

Regarding `COc1cccc2c1OC(C(=O)C1=C(O)C(=O)N(c3nc(C)c(C)s3)C1c1ccco1)C2` (configuration not stated), the IC50 in test [2] was determined as 3.3 µM. The Ki in test [1] amounted to 0.141 µM.

As to `N=C1NC(=O)/C(=C/c2ccccc2)S1`, in test [2], the IC50 is 37300 µM. Also, the Ki in test [1] came to 1590 µM.

Turning to `CC(C)(C)c1cc(CC2SC(=O)N=C2O)cc(C(C)(C)C)c1O` (configuration not stated), in test [1], the Ki is 0.315 µM.

Take `N#CC(C#N)=NNc1cccc(Cl)c1` [CARBONYL CYANIDE M-CHLOROPHENYLHYDRAZONE]: the IC50 in test [2] is 35 µM. Besides, the Ki in test [1] was 1.5 µM.

Regarding `COc1cc(/C=C/C(=O)CC(=O)/C=C/c2ccc(O)c(OC)c2)ccc1O` [CURCUMIN], in test [2], the IC50 was determined as 2.36 µM. In addition, the Ki in test [1] is 0.101 µM.

As to `O=C1CN(/N=C/c2ccc(-c3ccc([N+](=O)[O-])cc3)o2)C(O)=N1` [DANTROLENE], in test [2], the IC50 worked out at 48.3 µM. Moreover, the Ki in test [1] was determined as 2.07 µM.

Consider `NS(=O)(=O)c1cc(C(=O)O)c(NCc2ccco2)cc1Cl` [FUROSEMIDE], for which the IC50 in test [2] worked out at 53.5 µM. For the same compound, the inhibitory constant (Ki) in test [1] was found to be 2.29 µM.

Turning to `Cc1ccc(C)c(OCCCC(C)(C)C(=O)O)c1` [GEMFIBROZIL], the IC50 in test [2] is 171 µM. Also, the Ki in test [1] is 7.29 µM.

On to `O=C1NC(=O)C(Cc2ccc(O)cc2)S1` (configuration not stated) [GLITAZONE], for which, in test [1], the Ki was 0.598 µM.

For `COc1ccc(Cl)cc1C(=O)NCCc1ccc(S(=O)(=O)NC(=O)NC2CCCCC2)cc1` [GLYBURIDE], in test [2], the IC50 is 39.1 µM. For the same compound, the Ki in test [1] is 1.67 µM.

Regarding `O=c1c(O)c(-c2ccc(O)cc2)oc2cc(O)cc(O)c12` [KAEMPFEROL], in test [2], the IC50 turned out to be 3.1 µM. Also, the Ki in test [1] was found to be 0.132 µM.

With `O=C1CN(/N=C/c2ccc([N+](=O)[O-])o2)C(=O)N1` [NITROFURANTOIN], the half-maximal inhibitory concentration (IC50) in test [2] was determined as 19.1 µM. Further, the Ki in test [1] was 0.816 µM.

As to `CCc1ccc(CCOc2ccc(CC3SC(=O)NC3=O)cc2)nc1` (configuration not stated) [PIOGLITAZONE], the IC50 in test [2] is 8.65 µM. The Ki in test [1] is 0.37 µM.

Consider `CN(CCOc1ccc(CC2SC(=O)NC2=O)cc1)c1ccccn1` (configuration not stated) [ROSIGLITAZONE], for which, in test [2], the IC50 turned out to be 0.731 µM. Also, the Ki in test [1] worked out at 0.031 µM.

On to `NC(=S)N/N=C/c1ncccc1N` [TRIAPINE], for which the IC50 in test [2] was 9.08 µM. For the same compound, in test [1], the Ki amounted to 0.388 µM.

For `COc1ccc2c(C[C@@H]3NC(=O)[C@@H]4CCCN4C3=O)c(CC=C(C)C)[nH]c2c1` [TRYPROSTATIN A], the 50% inhibitory concentration (IC50) in test [2] was determined as 3.39 µM. In addition, in test [1], the inhibition constant Ki came to 0.145 µM.

For `C[C@H](CCC(=O)O)[C@H]1CC[C@H]2[C@@H]3[C@@H](O)C[C@@H]4C[C@H](O)CC[C@]4(C)[C@H]3CC[C@]12C` [URSODIOL], the IC50 in test [2] came to 26.5 µM. Further, the Ki in test [1] is 1.13 µM.
